Laboratory results taken from patent publication US12728134B2, “Liquisolid pharmaceutical formulation and process for manufacturing” (RHEINISCHE FRIEDRICH-WILHELMS-UNIVERSITÄT BONN, priority 2020, dated 2026).
Values after ≈ are worked out from the molar mass of the structure shown. Where a name gives a salt, the structure may show the parent alone. Each block holds one molecule with its values, some of them ahead of it.

Columns and labels:
[1] = Solubility of poorly water-soluble APIs in propylene carbonate; assay type: physicochemical; settings: organic solvent or mixture, thermodynamic from solid, solvent added in 10 μl steps to about 20 mg, mean of three samples
Experimental: For a preliminary analysis, 1-2 mg of each compound was weighted in an Eppendorf tube and 1 ml propylene carbonate was added. The mixture was mixed with a metal spatula for 10 min each. The solubility of compounds, which were fully dissolved in the preliminary tests where than further analyzed. About 20 mg of each compound were used and under stirring with a metal spatula propylene carbonate was added in 10 μl steps.

physchem = settings: organic solvent or mixture, thermodynamic from solid
Experimental: Therefore, 1 mg of each compound was weighted in an Eppendorf tube and 1 ml of solvent was added. The mixture was mixed with a metal spatula for 10 min each. […] About 20 mg of each compound were used and under stirring with a metal spatula the solvent was added in 10 μl steps.

[2] = Biphasic dissolution test (BiPHa+); assay type: in vitro ADME
Excerpt: This approach was chosen to simulate the gastrointestinal properties to obtain in vivo predictive results.
The transition to the organic phase can be understood as absorption of active substances into the blood.
To simulate the gastrointestinal properties to obtain in vivo predictive results, the pH-profile, bile salt concentration and gastrointestinal passage time were adjusted in the aqueous phase to mimic human gut conditions. An organic phase of 1-decanol above the aqueous phase imitated the fraction absorbed from the gut. As a test model, the profile of a person without prior food intake was chosen. Therefore, FaSSIF-V2 medium, which represents the bile salts concentration of a fasted human was used. […] To generate an in-situ biorelevant aqueous medium for the fasted state, biorelevant surfactants, namely sodium-taurocholate (3 mM) and lecithin (0.2 mM), were added.
Prior to the start of the experiments, both phases, 1-decanol and the acidic aqueous phase, were saturated with each other. First, the respective formulation was added (Table 2) to 50 mL HCl (0.1 M), simulating the stomach. During the first 30 min the formulation disintegrated/dispersed in 50 ml of 0.1 M HCl. After 30 min FaSSIF-V2 concentrate (sodium-taurocholate and lecithin) was added simultaneously to the addition of citrate-phosphate buffer (tri-potassium phosphate and potassium citrate) resulting in a first pH-shift from pH 1 to pH 5.5, simulating the duodenum. Thereafter, 50 mL 1-decanol was added. […] The adjusted buffers were titrated by 0.1 M NaOH and 0.1 M HCl (pH 5.5-6.8). The whole dissolution took 4.5 hours.
For each compound, the biphasic dissolution test was performed in triplicate. In order to evaluate the liquisolid formulations in terms of their performance, each liquisolid formulation was compared to a respective commercially available formulation.
The market formulations (Originator) of the selected APIs were tested additionally to compare the performance against established marked products.

solubility [1]: 17.2 mg/mL (≈ 48.1 mM)
Compound: COc1ccc2c(c1)c(CC(=O)O)c(C)n2C(=O)c1ccc(Cl)cc1 [Indomethacin]

solubility [1]: 4.79 mg/mL (≈ 14.7 mM)
Compound: CN1CCN(C2=Nc3cc(Cl)ccc3Nc3ccccc32)CC1 [Clozapine]

solubility [1]: 91.5 mg/mL (≈ 253 mM)
Compound: CC(=O)Oc1ccc(C(c2ccc(OC(C)=O)cc2)c2ccccn2)cc1 [Bisacodyl]

solubility [1]: 167 mg/mL
Compound: CN(C)CCCN1c2ccccc2CCc2ccccc21 [Imipramine hydrochloride]

Continued, molecule first:

Compound: COCCOC(=O)C1=C(C)NC(C)=C(C(=O)OC(C)C)C1c1cccc([N+](=O)[O-])c1 (stereo not drawn) [Nimodipine]
solubility [1]: 144 mg/mL (≈ 345 mM)
solubility at 10 min (physchem): < 1 mg/mL

Compound: Cc1ccc(-c2cc(C(F)(F)F)nn2-c2ccc(S(N)(=O)=O)cc2)cc1 [Celecoxib]
solubility [1]: 267 mg/mL (≈ 699 mM)
Maximum Partitioned Drug in the Organic Phase ([2]; Market Formulation (Originator, Table 11)): 41%
Maximum Partitioned Drug in the Organic Phase ([2]; PC Silsol ® Formulation (propylene carbonate on mesoporous silica)): 54%
Maximum Partitioned Drug in the Organic Phase ([2]; PEG 400 Silsol ® Formulation): 46%
Maximum Partitioned Drug in the Organic Phase ([2]; TEG Silsol ® Formulation): 53%
result of propylene carbonate formulation compared to commercially available market formulation ([2]; same in vitro biphasic dissolution conditions, in words): even better results
solubility at 10 min (physchem; glycerol): < 1 mg/mL
solubility (physchem; polyethylene glycol 400 (PEG 400)): 230 mg/mL (≈ 603 mM)
solubility (physchem; propylene glycol (PG)): 60.3 mg/mL (≈ 158 mM)
solubility (physchem; tetraglycole (TEG)): 244 mg/mL (≈ 641 mM)

Compound: COC1=CC(=O)C[C@@H](C)[C@]12Oc1c(Cl)c(OC)cc(OC)c1C2=O [Griseofulvin]
solubility [1]: 16.8 mg/mL (≈ 47.7 mM)

Compound: Cc1ccc(S(=O)(=O)NC(=O)NN2CC3CCCC3C2)cc1 (stereo not drawn) [Gliclazide]
solubility [1]: 32.3 mg/mL (≈ 99.8 mM)
